Results from a melting point compilation (Tetko et al.; mined from patent text by program, amines drawn as free bases though some values may be those of a salt).

| Compound | melting point |
| --- | --- |
| O=C(O)c1ccc(F)c(F)c1Nc1ccc(I)cc1F | 199 to 201 °C |
| O=C1c2ccccc2-n2cnc(Cl)c2[C@@H]2CCCN12 | 233 to 234 °C |
| CN(C)C1(c2ccccc2)CCC(=CC(=O)N2CCC(c3c[nH]c4ccccc34)C2)CC1 (stereo unspecified) | 94 to 97 °C |
| CC(=O)Oc1ccc(C=CC(=O)O)cc1Cl | 210 to 213 °C |
| COc1ccc(-n2c(=O)cc(C(F)(F)F)n(N)c2=O)cc1 | 176 to 178 °C |
| CC(=O)c1ccc(Oc2ncccc2C(=O)O)cc1 | 184 to 186 °C |
| COc1c([N+](=O)[O-])ccc2c1C(=O)CC1(CCN(C(C)=O)CC1)O2 | 160 to 165 °C |
| CCc1cn(C2CC(O)C(CNC)O2)c(=O)[nH]c1=O (stereo unspecified) | 145 to 147 °C |
| Cn1nc(C(F)(F)F)n(-c2ccc(O)cc2)c1=S | 150 to 152 °C |
| O=C(O)CN1C(=O)C(=Cc2ccc(Cl)cc2)SC1=S | 272 to 274 °C |
| Cc1cccc(-c2n[nH]cc2-c2ccc(F)c(-c3ccc(C(C)O)cn3)c2)n1 (stereo unspecified) | 149 to 151 °C |
| COc1cc(OC)nc(NC(=O)NS(=O)(=O)c2c(OC)ccc3snnc23)n1 | 120 to 129 °C |
| O=c1[nH]c2cc(Cl)cc(Cl)c2c(O)c1Sc1ccc(O)cc1 | > 300 °C |
| Cc1cc(C2=CC(c3cc(Cl)cc(Cl)c3)(C(F)(F)F)OC2)ccc1C(=O)OC(C)(C)C (stereo unspecified) | 160 to 162 °C |
| COc1cccc2c1CCC1C(C)=C(O[Si](C)(C)C)CCC21C (stereo unspecified) | 79 °C |
| COc1ccc(-c2nc(CNC(=O)C3=NNC(=O)CC3)sc2-c2ccc(OC)cc2)cc1 | 174 to 175 °C |
| N#CCCNC(=O)c1cccc(-c2ccc3c(c2)C(Nc2ccc(Cl)cc2Cl)CO3)c1 (stereo unspecified) | 165 to 166 °C |
| Cn1c(=O)[nH]c(=O)n(-c2cc(N)c(F)cc2Cl)c1=O | 244 to 245 °C |
| CCOC(=O)c1ccc(OCCCCCCCCCCCCCOc2ccc(Cl)cc2)cc1 | 75 to 77 °C |
| COc1cccc(OC)c1C(=O)Nc1nnc(-c2ccc(NC(C)=O)cc2)s1 | 211 to 213 °C |
| CCOC(=O)CCn1c(-c2ccc(Cl)cc2)nc2cccnc21 | 57 to 59 °C |
| Cc1cc(C)cc(-c2cc(C(=O)NCCCCCCCc3ccccc3)cc(-c3cc(C)cc(C)c3)c2OCCCC(=O)O)c1 | 64 to 66 °C |
| O=C1c2ccc(OC3CCCCC3)cc2CCC1CN1CCC(O)(c2ccccc2)CC1 (stereo unspecified) | 175 to 177 °C |
| O=c1c2ccc(-c3nnn[nH]3)cc2oc2ccc(OCCO)cc12 | 270 °C |
| CCOC(=O)C1=C(C)NC(C)=C(C(=O)OCCN2CCN(C(c3ccccc3)c3ccccc3)CC2)C1c1ccc(Cl)cc1 (stereo unspecified) | 75 to 79 °C |
| c1ccc(-c2ncc(-c3cnc(-c4ccccn4)[nH]3)cn2)cc1 | 262 °C |

| Compound | melting point |
| --- | --- |
| COc1cc(N)c(Cl)cc1C(=O)NCC1CCN(CCCCCCC(=O)c2ccccc2)CC1 | 128 to 130 °C |
| COc1ccc(COCC(O)Cc2cccnc2)cc1 (stereo unspecified) | 55 to 56 °C |
| Cc1ccc(Cl)cc1NC(=O)OC(C)(C)C | 100 to 102 °C |
| O=P(O)(O)Cc1ccccc1C(F)(F)F | 190 to 192 °C |
| COC(=O)c1nc(-c2ccc(Cl)c(OC)c2F)nc(N)c1F | 200 to 202 °C |
| COc1cc(CCCO)c(Br)cc1OCc1ccc(Cl)cc1Cl | 102 to 103 °C |
| CC(C)(C)OC(=O)N1CCN(C(=O)Oc2ccc(Oc3ccc(C(F)(F)F)cn3)cc2)CC1 | 165 to 166 °C |
| CC[C@]12CC[C@H]3[C@@H](CC(=C(Br)Br)C4=CC(=O)CC[C@@H]43)[C@@H]1CCC2=O | 149 to 153 °C |
| Cn1nnc(-c2ccc3c(ccn3-c3ccc(F)cc3)c2)n1 | 131 to 133 °C |
| COc1ccc(OC)c(C2Nc3ccccc3S2)c1 (stereo unspecified) | 96 to 99 °C |
| COc1cc2c(cc1OC)CN(CCCSc1ccc(NC(=O)c3cccc4c(=O)c5cccc(C)c5[nH]c34)cc1)CC2 | 155 °C |
| COc1ccc(CCC(=O)Nc2c(C)c(C)c3c(c2C)C(c2ccc(C(C)C)cc2)C(C)(C)O3)cc1 (stereo unspecified) | 188 to 191 °C |
| CCCC(=O)OC1CSC(Oc2cccnc2)C(OC(=O)CCC)C1OC(=O)CCC (stereo unspecified) | 70 °C |
| Cc1ccc(S(=O)(=O)OCCN2CN(C)C(=S)N(c3ccc(C)cc3C)C2)cc1 | 82 to 85 °C |
| CCOC(=O)c1nc2ccccc2nc1CC | 53 to 54 °C |
| Clc1ccc2oc(CBr)cc2c1 | 70 °C |
| CCOC=Cc1nc2c(=O)n(Cc3ccccc3)cnc2n1Cc1ccccc1 | 167 to 168 °C |
| CON1C(C)(C)CC(OC(=O)N=NC(=O)OC2CC(C)(C)N(OC)C(C)(C)C2)CC1(C)C | 145 to 147 °C |
| CNC1CN(c2nc3c(cc2F)c(=O)c(C(=O)O)cn3C2CC2)C1 | 206 to 212 °C |
| CCCc1c(OCCCC(=O)O)ccc(C(C)=O)c1O | 130 to 133 °C |
| OCCCCCCCCCCCCCCCCN(CCO)CCO | 67.6 to 68.8 °C |
| COC(=O)c1ccc(N2CCOCC2)cc1 | 152 to 154 °C |
| CN1CCNC(c2ccccc2)c2cc(Cl)ccc21 (stereo unspecified) | 66 to 68 °C |
| CC(=O)Oc1ccc(C(=O)NCCO[N+](=O)[O-])cc1 | 95 to 97 °C |
| CCOC(=O)c1nn(-c2ccc(Cl)cc2)c(=O)c(C#N)c1C | 160 to 161 °C |
| CN(C)C(=O)Cc1c(-c2ccccc2)nn2cccnc12 | 156 to 158 °C |

| Compound | melting point |
| --- | --- |
| O=C(O)COC1c2ccccc2COc2ccc(/C=C/c3ccc4cc(F)c(F)cc4n3)cc21 (stereo unspecified) | 206 to 208 °C |
| CC(Cc1cc(-c2ccccc2)nc2ccccc12)C(=O)O (stereo unspecified) | 185 °C |
| COc1ccc(C=C2SC(=S)N(CC(=O)O)C2=O)cc1-c1cc2c(cc1C)C(C)(C)CCC2(C)C | 242 to 244 °C |
| CCOC1CC2(C)C(CCC3C4CC=C(C(C)=O)C4(C)CC(=O)C32)CC1O (stereo unspecified) | 89 to 91 °C |
| O=[N+]([O-])c1ccc(/C=C/c2ccc(Cl)c(C(F)(F)F)c2)cc1 | 173 to 174 °C |
| O=C(Nc1ccccc1C(=O)NCCc1nccs1)c1ccc(Cl)cc1 | 156 to 160 °C |
| Cc1ccc(-c2ccnc3c(C(=O)c4cccs4)cnn23)cc1NC(=O)NC(C)C | 225 to 227 °C |
| O=C(Nc1nnn(C(F)F)n1)C1c2ccccc2Oc2ccccc21 | 168 to 169 °C |
| Cc1cc(OC2CCN(CCNC(=O)c3ccc(S(C)(=O)=O)cc3)CC2)ccc1Cl | 123 to 124 °C |
| COC(c1sc2ccc(Cl)cc2c1Cl)C(C)NC(=O)c1cn(C)nc1C(F)F (stereo unspecified) | 128 to 132 °C |
| CC(C)C(=O)NC1CCc2c(c3cc(C#N)ccc3n2Cc2ncccc2F)C1 (stereo unspecified) | 213 to 216 °C |
| CS(=O)(=O)c1ccc(/C(=C(\CCO[N+](=O)[O-])C(=O)O)c2ccc(Cl)cc2)cc1 | 143 to 144 °C |
| CCCC(=O)Nc1cc(C(Cl)(Cl)Cl)ccn1 | 88 to 90 °C |
| O=C(O)CN1CCC(Cc2ccccc2)CC1 | 250 to 252 °C |
| COc1ccc(C(=O)Cn2c(-n3ccc(N)n3)nc3ccccc32)cc1 | 136 to 140 °C |
| CCOC(=O)C1CCN(c2ccc([N+](=O)[O-])c(C=C3NC(=O)NC3=O)c2)CC1 | 221 to 223 °C |
| C[Si](C)(C)C#Cc1ccc(C=Cc2ccc(C#C[Si](C)(C)C)cc2)cc1 | 207 to 208 °C |
| N#Cc1n[nH]c2nc(N3CCN(CCO)CC3)ccc12 | 232 to 233 °C |
| CC(CO)c1ccc2c(c1)Cc1ccccc1O2 (stereo unspecified) | 86 to 89 °C |
| CC1(C)Cc2cccc(S(N)(=O)=O)c2O1 | 160 to 162 °C |
| CC(C)(C)[Si](C)(C)O[C@@H]1[C@H](O)C[C@]2(O[Si](C)(C)C(C)(C)C)C[C@H]1OC2=O | 107 to 108 °C |
| COC1(OC)C(=O)N(C)c2ccc(I)cc21 | 101 to 103 °C |
| CC(=O)Cc1cc2c(cc1C(=O)c1ccc([N+](=O)[O-])c(C)c1)OCO2 | 146 to 148 °C |
| CCN(CCNC(=O)c1cnc2cc(I)ccc2n1)CCNc1cccc(Br)n1 | 49 to 51 °C |
| O=C1c2cccc(Br)c2C(=O)N1c1ccc(OC(F)(F)F)cc1 | 117 to 118 °C |
| O=C1c2ccccc2CCC1CN1CCC(O)(c2ccccc2)CC1 (stereo unspecified) | 164 to 167 °C |

| Compound | melting point |
| --- | --- |
| CC(C)(C)OC(=O)c1ccc(Cl)cn1 | 86.3 to 88.3 °C |
| Oc1ccc2c(c1)CCC2n1cc[nH]c1=S (stereo unspecified) | 208 to 209 °C |
| CN(C)c1cccc(CC(=O)Cc2cccc(Cl)c2)c1 | 58 to 60 °C |
| CCOC(=O)CCc1cc([N+](=O)[O-])ccc1O | 199 to 200 °C |
| CNc1cc(NS(=O)(=O)c2cccc(C(F)(F)F)c2)nc(NC)n1 | 234 to 235 °C |
| COC(=O)c1cccc(C(=O)c2[nH]c3cc(Cl)ccc3c2N)c1 | 187 to 189 °C |
| Cc1oc2cc(CCl)ccc2c1C | 63 to 65 °C |
| CCC(C)(C)n1nnnc1S | 104 to 106 °C |
| CCCOc1ccc(S(=O)(=O)N2CCN(CC)CC2)cc1-c1nc2cc3ncn(Cc4cccc(F)c4)c3cc2c(=O)[nH]1 | 115 to 117 °C |
| C=C=COc1ccccc1S(N)(=O)=O | 94 to 95 °C |
| CNc1cc([N+](=O)[O-])cc([N+](=O)[O-])c1 | 153 to 154 °C |
| CCCCC[C@@H](CNC(=O)Nc1c(OCC)ncnc1N(C)C)c1cccc2c1OCO2 | 62 to 64 °C |
| O=S(=O)(N1CCCC1)N1CCN(c2ccnc(CO)n2)CC1 | 128 to 131 °C |
| O=C(NC1CCOc2cc(C(=O)O)ccc21)OCc1ccccc1 (stereo unspecified) | 227 to 228 °C |
| CC(=O)OC1C(NC(=O)Cc2cccc3c2Cc2ccccc2-3)C(CO)OC1n1cnc2c(Cl)ncnc21 (stereo unspecified) | 196 to 197 °C |
| CCOc1cc(F)ccc1N1CCN(Cc2ccc(CNC(C)=O)cc2)CC1 | 108 to 109 °C |
| Cc1cc(C)cc(-c2cnn3c(-c4cccc(-c5nnn(Cc6ccccn6)n5)c4)ccnc23)c1 | 77 °C |
| O=[N+]([O-])c1ccccc1COc1ccc2ncc3c(c2c1)CCCC3 | 153 to 154 °C |
| C=CCOC(=O)C1=C(C)Nc2nc(N)nc(N)c2C1c1cccc([N+](=O)[O-])c1 (stereo unspecified) | 188 °C |
| COc1ccc2c(c1)c(Cc1cc(=O)n(-c3ccc(C(F)(F)F)cc3)[nH]1)c(C)n2C(=O)c1ccc(C#N)cc1 | 92 to 94 °C |
| COc1cc(NCCCCCCN2CCN(c3ccccn3)CC2)c2nccc(C)c2c1 | 78 to 81 °C |
| COc1cc(C(=O)O)cc(Cl)c1Cl | 218 to 219 °C |
| O=Cc1cc(Oc2ccccc2)ccc1O | 54 to 55 °C |
